{"source": "patent US8809233B2", "about": "“Ternary herbicidal compositions comprising aminopyralid and imazamox” (BASF SE, priority 2008, dated 2014)", "format_in_all_cases": "in vivo", "key": {"[1]": {"system": "Capsella bursa-pasturis (CAPBP)", "experiment": "greenhouse post-emergence herbicidal activity on CAPBP", "description": "(§1) The test plants have been seeded, separately for each species, in plastic containers in sandy loamy soil containing 5% of organic matter.\n(§2) For the post emergence treatment, the plants were first grown to the 2 leaf station (GS 12). Here, the herbicidal compositions were suspended or emulsified in water as distribution medium and sprayed using finely distributing nozzels.\n(§3) The plants have been cultivated due to there individual requirements at 10-25° C. and 20-35° C. The plants were irrigated due to there necessity.\n(§4) The respective herbicides A and/or safener were formulated as 10% by weight strength suspension concentrate and introduced to the spray liquor with the amount of solvent system used for applying the active compound. Herbicide B and/or safener were used as commercially available formulations and introduced to the spray liquor with the amount of solvent system used for applying the active compound. In the examples, the solvent used was water.\n(§5) In the following experiments, the herbicidal activity for the individual herbicide compounds (solo and mixture applications), the herbicidal succession was assessed 14 days after treatment (DAT).\n(§6) The evaluation for the damage on undesired weeds caused by the chemical compositions was carried out using a scale from 0 to 100%, compared to the untreated control plants. Here, 0 means no damage and 100 means complete destruction of the plants.\n(§7) The value E, which is to be expected if the activity of the individual compounds is just additive, was calculated using the method of S. R. Colby (1967) “Calculating synergistic and antagonistic responses of herbicide combinations”, weeds 15, p. 22ff.\n(§8) [formula] where: X=effect in percent using herbicide A at an application rate a; Y=effect in percent using herbicide B at an application rate b; Z=effect in percent using herbicide C at an application rate c; E=expected effect (in %) of A+B+C at application rates a+b+c\n(§9) Tables 1 to 2 relate to the herbicidal activity, in greenhouse trials, of the individual actives and the combination in post-emergence application 14 DAT."}, "[2]": {"system": "Matricaria inodora (MATIN)", "experiment": "greenhouse post-emergence herbicidal activity on MATIN", "details": "Tripleurospermum inodorum", "description": "as §1, §2, §3, §4, §5, §6, §7, §8, §9"}, "[3]": {"system": "Papaver rhoeas (PAPRH)", "experiment": "greenhouse post-emergence herbicidal activity on PAPRH", "description": "as §1, §2, §3, §4, §5, §6, §7, §8, §9"}, "[4]": {"system": "Mercurialis annua (MERAN)", "experiment": "greenhouse post-emergence herbicidal activity on MERAN", "description": "as §1, §2, §3, §4, §5, §6, §7, §8, §9"}, "[5]": {"system": "Thlaspi arvense (THLAR)", "experiment": "greenhouse post-emergence herbicidal activity on THLAR", "description": "as §1, §2, §3, §4, §5, §6, §7, §8, §9"}, "[6]": {"system": "Viola arvensis (VIOAR)", "experiment": "greenhouse post-emergence herbicidal activity on VIOAR", "description": "as §1, §2, §3, §4, §5, §6, §7, §8, §9"}, "[7]": {"system": "Matricaria chamomilla (MATCH)", "experiment": "greenhouse post-emergence herbicidal activity on MATCH", "details": "672 h, read-out: % activity 28 DAT", "description": "as §1, §2, §3\nas §4, with “water. […]” for “water.”\nThe evaluation for the damage on undesired weeds caused by the chemical compositions was carried out using a scale from 0 to 100%, compared to the untreated control plants. […]\nThe value E, which is to be expected if the activity of the individual compounds is just additive, was calculated using the method of S. R. Colby (1967) “Calculating synergistic and antagonistic responses of herbicide combinations”, weeds 15, p. […]"}}, "note": "Where two headings read alike, the source gives them in different places."}
{"smiles": "COCc1cnc(C2=NC(C)(C(C)C)C(=O)N2)c(C(=O)O)c1", "note": "(racemic) [imazamox, 2-[(RS)-4-isopropyl-4-methyl-5-oxo-2-imidazolin-2-yl]-5-methoxymethylnicotinic acid]", "values": [{"measurement": "inhibition at 20 g/ha", "setting": "[1]; CAPBP, solo application, use rate 20 g ai/ha", "result": 90, "unit": "%"}, {"measurement": "inhibition at 10 g/ha", "setting": "[1]; Table 2, CAPBP, solo application, use rate 10 g ai/ha (imazamox), read-out: % activity", "result": 80, "unit": "%"}, {"measurement": "inhibition at 20 g/ha", "setting": "[2]; MATIN, solo application, use rate 20 g ai/ha", "result": 65, "unit": "%"}, {"measurement": "inhibition at 20 g/ha", "setting": "[3]; PAPRH, solo application, use rate 20 g ai/ha", "result": 35, "unit": "%"}, {"measurement": "inhibition at 20 g/ha", "setting": "[4]; MERAN, solo application, use rate 20 g ai/ha", "result": 90, "unit": "%"}, {"measurement": "inhibition at 20 g/ha", "setting": "[5]; THLAR, solo application, use rate 20 g ai/ha", "result": 90, "unit": "%"}, {"measurement": "inhibition at 20 g/ha", "setting": "[6]; VIOAR, solo application, use rate 20 g ai/ha", "result": 0, "unit": "%"}]}
{"smiles": "Nc1cc(Cl)nc(C(=O)O)c1Cl", "note": "[aminopyralid, 4-amino-3,6-dichloropyridine-2-carboxylic acid]", "values": [{"measurement": "inhibition at 2.5 g/ha", "setting": "[1]; read-out: % activity", "result": 0, "unit": "%"}, {"measurement": "inhibition at 5 g/ha", "setting": "[1]; read-out: % activity", "result": 10, "unit": "%"}, {"measurement": "inhibition at 10 g/ha", "setting": "[1]; read-out: % activity", "result": 25, "unit": "%"}, {"measurement": "inhibition at 2.5 g/ha", "setting": "[2]; read-out: % activity", "result": 35, "unit": "%"}, {"measurement": "inhibition at 5 g/ha", "setting": "[2]; read-out: % activity", "result": 60, "unit": "%"}, {"measurement": "inhibition at 2.5 g/ha", "setting": "[3]; read-out: % activity", "result": 0, "unit": "%"}, {"measurement": "inhibition at 5 g/ha", "setting": "[3]; read-out: % activity", "result": 15, "unit": "%"}, {"measurement": "inhibition at 2.5 g/ha", "setting": "[4]; read-out: % activity", "result": 70, "unit": "%"}, {"measurement": "inhibition at 2.5 g/ha", "setting": "[7]", "result": 40, "unit": "%"}, {"measurement": "inhibition at 5 g/ha", "setting": "[7]", "result": 75, "unit": "%"}, {"measurement": "inhibition at 2.5 g/ha", "setting": "[5]; read-out: % activity", "result": 30, "unit": "%"}, {"measurement": "inhibition at 2.5 g/ha", "setting": "[6]; read-out: % activity", "result": 10, "unit": "%"}, {"measurement": "inhibition at 5 g/ha", "setting": "[6]; read-out: % activity", "result": 10, "unit": "%"}]}
{"smiles": "O=C(O)c1nc(Cl)ccc1Cl", "note": "[clopyralid]", "values": [{"measurement": "inhibition at 30 g/ha", "setting": "[1]; Table 2, CAPBP, solo application, use rate 30 g ai/ha", "result": 0, "unit": "%"}, {"measurement": "inhibition at 120 g/ha", "setting": "[1]; Table 2, CAPBP, solo application, use rate 120 g ai/ha", "result": 10, "unit": "%"}]}
{"smiles": "Cc1cccc(C)c1N(Cn1cccn1)C(=O)CCl", "note": "[metazachlor]", "values": [{"measurement": "inhibition at 187 g/ha", "setting": "[1]; CAPBP, solo application, use rate 187 g ai/ha", "result": 0, "unit": "%"}, {"measurement": "inhibition at 187 g/ha", "setting": "[2]; MATIN, solo application, use rate 187 g ai/ha", "result": 60, "unit": "%"}, {"measurement": "inhibition at 187 g/ha", "setting": "[3]; PAPRH, solo application, use rate 187 g ai/ha", "result": 30, "unit": "%"}, {"measurement": "inhibition at 187 g/ha", "setting": "[4]; MERAN, solo application, use rate 187 g ai/ha", "result": 15, "unit": "%"}, {"measurement": "inhibition at 187 g/ha", "setting": "[5]; THLAR, solo application, use rate 187 g ai/ha", "result": 0, "unit": "%"}, {"measurement": "inhibition at 187 g/ha", "setting": "[6]; VIOAR, solo application, use rate 187 g ai/ha", "result": 15, "unit": "%"}]}
